For the assay, the target named is T1, Dimer of Gag-Pol polyprotein [489-587] (Human immunodeficiency virus 1, UniProt P12497).
T1 construct: 489-587
In words: Protease Inhibition Assay. The following applies: pH 5.5; 25 °C. On the procedure:
The inhibition assays were performed by mixing enzyme and fluorogenic substrate in the presence of inhibitor compounds. The hydrolysis of the substrate was recorded as an increase of the fluorescence intensity. Ki values were calculated from the IC50 values taken from a dose-response curve with the fluorescent assay using the equation Ki = (IC50 - [E]/2)/ (1 +[S]/Km), where [E] and [S] are the protease and substrate concentrations, Km is the Michaelis-Menten constant.

Each structure is given as a SMILES string. Where only a bound is given, the exact number is not on record here.

For the molecule `O=C(N[C@H](Cc1cccc(Br)c1)[C@@H](O)C[C@@H](CCc1ccc(Cl)cc1Cl)S(=O)(=O)c1ccc(F)cc1)[C@H]1CCCO1` [(2R)-N-{(1R,2S,4R)-1-(3-bromobenzyl)-6-(2,4-dichlorophenyl)-4-[(4-fluorophenyl)sulfonyl]-2-hydroxyhexyl}tetrahydrofuran-2-carboxamide], the IC50 is over 40 µM and the Ki is over 40 µM. Regarding `O=C(N[C@@H](Cc1cccc(Br)c1)[C@H](O)C[C@H](CCc1ccc(Cl)cc1Cl)S(=O)(=O)c1ccc(F)cc1)[C@H]1CCCO1` [(2R)-N-{(1S,2R,4S)-1-(3-bromobenzyl)-6-(2,4-dichlorophenyl)-4-[(4-fluorophenyl)sulfonyl]-2-hydroxyhexyl}tetrahydrofuran-2-carboxamide], half-maximal inhibition (IC50) required 4.2 µM. Molecule `CC(C)CCS(=O)(=O)[C@@H](C)C[C@@H](O)[C@H](Cc1cccc(Br)c1)NC(=O)CCS(C)(=O)=O` [N-{(1S,2R,4S)-1-(3-bromobenzyl)-2-hydroxy-4-[(3-methylbutyl)sulfonyl]pentyl}-3-(methylsulfonyl)propanamide] displayed an IC50 of over 40 µM and a Ki of over 40 µM.

The IC50 is the concentration that inhibits the measured activity by half. High values mean weaker potency in that assay, low ones greater potency in that assay. One may read the Ki as the dissociation constant of the complex between target and ligand, obtained from inhibition or displacement.
